Assay: Antiproliferative activity against human RT112 cells after 72 hrs by MTT assay
Type: functional
Conditions: RT-112, 72 h

| Structure (SMILES) | GI50 [nM] |
| --- | --- |
| COc1cc(Nc2ncnc3c(NC(=O)Nc4ccc(F)cc4C(F)(F)F)cccc23)cc(OC)c1 | 2970 |
| COc1cc(Nc2ncnc3c(NC(=O)Nc4ccc5c(c4)OCCO5)cccc23)cc(OC)c1 | 2750 |
| COc1cc(Nc2ncnc3c(NC(=O)Nc4cc(C)cc(C)c4)cccc23)cc(OC)c1 | 10100 |
| COc1cc(Nc2ncnc3c(NC(=O)Nc4ccc([N+](=O)[O-])cc4)cccc23)cc(OC)c1 | > 20000 |
| COc1cc(Nc2ncnc3c(NC(=O)Nc4ccc(Cl)cc4Cl)cccc23)cc(OC)c1 | 3060 |
| COc1cc(CCc2cc(NC(=O)c3ccc(N4C[C@@H](C)N[C@@H](C)C4)cc3)n[nH]2)cc(OC)c1 [FEXAGRATINIB] | 29.2 |
| COc1cc(Nc2ncnc3c(NC(=O)c4cccc(N5CCN(C)CC5)c4)cccc23)cc(OC)c1 | > 20000 |
| COc1cc(Nc2ncnc3c(NC(=O)Nc4ccc(F)cc4F)cccc23)cc(OC)c1 | 2460 |
| COc1cc(Nc2ncnc3c(NC(=O)Nc4ccccc4Cl)cccc23)cc(OC)c1 | 356 |
| COc1cc(Nc2ncnc3c(NC(=O)c4ccc(CN(C)C)cc4)cccc23)cc(OC)c1 | 4370 |
| COc1cc(Nc2ncnc3c(NC(=O)Nc4ccc(C)c(C)c4)cccc23)cc(OC)c1 | 8.8 |
| COc1cc(Nc2ncnc3c(NC(=O)Nc4ccc(C)cc4C)cccc23)cc(OC)c1 | 1290 |
| COc1cc(Nc2ncnc3c(NC(=O)c4cc(=O)c5ccccc5o4)cccc23)cc(OC)c1 | > 20000 |
| COc1cc(NC(=O)Nc2cccc3c(Nc4cc(OC)cc(OC)c4)ncnc23)cc(OC)c1 | 366 |
| COc1cc(Nc2ncnc3c(NC(=O)Nc4cccc(C(F)(F)F)c4F)cccc23)cc(OC)c1 | 471 |
| COc1cc(Nc2ncnc3c(NC(=O)Nc4cccc(Oc5ccccc5)c4)cccc23)cc(OC)c1 | 14000 |

| Structure (SMILES) | GI50 [nM] |
| --- | --- |
| COc1cc(Nc2ncnc3c(NC(=O)Nc4cccc(Cl)c4Cl)cccc23)cc(OC)c1 | 63.2 |
| CCOC(=O)c1ccc(NC(=O)Nc2cccc3c(Nc4cc(OC)cc(OC)c4)ncnc23)cc1 | 317 |
| COc1cc(Nc2ncnc3c(NC(=O)Nc4ccc(Cl)cc4)cccc23)cc(OC)c1 | 2490 |
| COc1cc(Nc2ncnc3c(NC(=O)Nc4ccc(C(F)(F)F)cc4[N+](=O)[O-])cccc23)cc(OC)c1 | > 20000 |
| COc1cc(Nc2ncnc3c(NC(=O)Nc4ccc(Cl)c(C(F)(F)F)c4)cccc23)cc(OC)c1 | > 20000 |
| COc1cc(Nc2ncnc3c(NC(=O)Nc4ccc(C(F)(F)F)cc4Cl)cccc23)cc(OC)c1 | 1080 |
| COc1cc(Nc2ncnc3c(NC(=O)Nc4ccc(C(F)(F)F)cc4)cccc23)cc(OC)c1 | 3920 |
| COc1cc(Nc2ncnc3c(NC(=O)Nc4cc(Cl)c(Cl)cc4Cl)cccc23)cc(OC)c1 | 4890 |
| COc1cc(Nc2ncnc3c(NC(=O)Nc4cc(C(F)(F)F)cc(C(F)(F)F)c4)cccc23)cc(OC)c1 | 467 |
| CCN(CC)CCCCNc1ncc2cc(-c3cc(OC)cc(OC)c3)c(NC(=O)NC(C)(C)C)nc2n1 [PD-173074] | 15 |
| COc1cc(Nc2ncnc3c(NC(=O)Nc4cccc(C)c4C)cccc23)cc(OC)c1 | 5910 |
| COc1cc(Nc2ncnc3c(NC(=O)Nc4cc(Cl)cc(Cl)c4)cccc23)cc(OC)c1 | 30.2 |
| COc1cc(Nc2ncnc3c(NC(=O)Nc4ccc(Cl)c(Cl)c4)cccc23)cc(OC)c1 | 6230 |
| COc1cc(Nc2ncnc3c(NC(=O)Nc4cccc(Cc5ccccc5)c4)cccc23)cc(OC)c1 | 1740 |
| COc1cc(Nc2ncnc3c(NC(=O)c4ccc(N5CCN(C)CC5)cc4)cccc23)cc(OC)c1 | 14200 |
| COc1cc(Nc2ncnc3c(NC(=O)Nc4cc(F)cc(F)c4)cccc23)cc(OC)c1 | 2630 |
